Measured values published in patent US6558435B2, “Reactive crystallization method to improve particle size” (Pfizer, Inc., priority 2000, dated 2003).
Where a name gives a salt, the structure may show the parent alone.

How the values were obtained:
Assay type in all cases: physicochemical
[1] = Particle size analysis by Malvern light scattering, hexane as dispersant; conditions: for D90, 90% of the particles by volume less than / volume mean diameter, D[4,3] / fines (particles below about 1 micron detected): Malvern, hydrochloride monohydrate; for D90, 90% of the particles by volume less than / volume mean diameter, D[4,3]: dried crystals; for particle size distribution compared with batch crystallized and milled sample: impinging jet material vs comparative 15.6 kg sample
Method: X-ray diffraction (XRD) and differential scanning calorimetry (DSC) indicated the correct form of Ziprasidone hydrochloride monohydrate was produced by the impinging jet reactive crystallization process. The dried powder crystals were sieved through a 600 micron sieve as a means to delump. The particles were analyzed by Malvern using hexane as a dispersant.
The crystals were sieved through a 600 micron sieve to delump and the particles were analyzed by Malvern using hexane as a dispersant. […] According to patent EU 0 965 343 A2 (08.06.1999), the most preferred mean particle size of Ziprasidone hydrochloride monohydrates is in the 5-30 micron range obtained through milling operations which the present invention achieves without the need for high intensity milling. The particle sizes stipulated herein and in the claims refer to particle sizes determined with Malvern light scattering.
In a comparative 15.6 kg sample produced by the typical batch crystallization process method followed by milling using a pin mill at 10,000 rpm, the volume mean diameter, D[4,3], was 23.6 microns with 90% of the particles by volume less than 51 microns, while 5.4% of the batch by the volume distribution had particle size less than 1 micron indicating a much greater number of fines. […]

[2] = Particle size of the jet milled seed (method not given)
Method: A receiving vessel contained 250 ml of methanol and 250 ml of ethyl acetate to which 20 milligrams of jet milled 5,8,14-triazatetracyclo[10.3.1.0^2,11.0^4,9]-hexadeca-2(11),3,5,7,9-pentaene (L)-tartrate were added as seed. […] The receiver was equipped with magnetic stirrer to suspend the seed in the methanol-ethyl acetate solvent system. The impinging jet apparatus was submerged in the receiver vessel with both jets having inside diameters of 0.007 inches (ID).

[3] = Particle size analysis (Aerosizer)
Method: Flow of neat methanol and ethyl acetate was initiated through their respective jets at 20 ml/min for 5 seconds from separate reservoirs to establish steady state flow. By way of two 3-way valves the solutions of 5,8,14-triazatetracyclo[10.3.1.0^2,11.0^4,9]-hexadeca-2(11),3,5,7,9-pentaene free base solution and (L)-tartaric acid were switched on so they would impinge each other at the same 20 ml/min flow rate. The velocities through the jets were 13.4 meters/sec. After 1 minute of impingement the flows were stopped and the resulting slurry was allowed to age in the agitated receiver for 5 minutes. The slurry was vacuum filtered and dried at 40° C. overnight and delumped through a 500 micron sieve.

[4] = Dry particle sizing analysis (SympaTec)
Method: The crystals were dried in a vacuum oven at 50° C. and 10 inches of Hg with an air bleed for 24 hours. The dried material was sieved through a 30 mesh (600 μm) screen as a means to delump. Differential scanning calorimetry and x-ray diffraction confirmed the complete conversion to the Voriconazole free-base. No unreacted Voriconazole camphorsulfonate was detected.
Specification of product conventionally obtained by jet milling is 90% less than 130 microns and 50% less than 50 microns.

## O=C1Cc2cc(CCN3CCN(c4nsc5ccccc45)CC3)c(Cl)cc2N1 [Example 3, Ziprasidone hydrochloride monohydrate]
[1]
  D90, 90% of the particles by volume less than: 210 microns
  volume mean diameter, D[4,3]: 104 microns
  fines (particles below about 1 micron detected): No particles below 1 micron were measured

## O=C(O)C(O)C(O)C(=O)O.c1cnc2cc3c(cc2n1)C1CNCC3C1 [seed, 5,8,14-triazatetracyclo[10.3.1.0^2,11.0^4,9]-hexadeca-2(11),3,5,7,9-pentaene (L)-tartrate]
[2]
  volume mean diameter: 2.7 microns

## O=C(O)C(O)C(O)C(=O)O.c1cnc2cc3c(cc2n1)C1CNCC3C1 [Example 5, 5,8,14-triazatetracyclo[10.3.1.0^2,11.0^4,9]-hexadeca-2(11),3,5,7,9-pentaene L-tartrate]
[3]
  5% of particles less than: 5 microns
  95% of the particles less than: 15 microns
[3]; delumped through 500 micron sieve
  volume mean diameter: 10 microns

## C[C@@H](c1ncncc1F)[C@](O)(Cn1cncn1)c1ccc(F)cc1F [Example 4, Voriconazole free base]
[4]
  50% of particles (D[v,0.50]) less than: 18 microns
  90% of particles (D[v,0.9]) less than: 41 microns
[4]; sieved through 30 mesh
  volume mean diameter: 22 microns

## O=C1Cc2cc(CCN3CCN(c4nsc5ccccc45)CC3)c(Cl)cc2N1 [Example 1, Ziprasidone hydrochloride monohydrate]
[1]
  D90, 90% of the particles by volume less than: 83 microns
  volume mean diameter, D[4,3]: 43 microns
  fines (particles below about 1 micron detected): No particles with diameters of less that 0.9 micron were detected
  particle size distribution compared with batch crystallized and milled sample: narrower particle size distribution with fewer fines produced

## O=C1Cc2cc(CCN3CCN(c4nsc5ccccc45)CC3)c(Cl)cc2N1 [Example 2, Ziprasidone hydrochloride monohydrate]
[1]
  D90, 90% of the particles by volume less than: 41 microns
  volume mean diameter, D[4,3]: 22.5 microns
  fines (particles below about 1 micron detected): No particles of less that 1.0 micron were detected
  particle size distribution compared with batch crystallized and milled sample: narrower particle size distribution with fewer fines produced
